# Assay results as given in US8765728B2, “[1,5]-diazocin derivatives” (MelliTech, priority 2009, dated 2014).
# Test system: Min6 cell
# Assay: Insulin secretion response of beta cell line to formula I compounds (insulin ELISA)
# Assay type: cell-based
# Details: rank according to % increase versus control at most effective dose
# Description: The secretory responses of beta cell lines to glucose were tested as described in Merglen et al. Endocrinology, (2004) 145(2):667-78.
# Briefly, after incubation with compounds from formula I or control vehicle, cells were maintained for 2 hours in glucose-free culture medium. The cells were then washed twice and preincubated for 30 minutes at 37° C. in glucose-free Krebs-Ringer bicarbonate HEPES buffer (KRBH: 135 mM NaCl, 3.6 mM KCl, 5 mM NaHCO3, 0.5 mM NaH2PO4, 0.5 mM MgCl2, 1.5 mM CaCl2, and 10 mM HEPES, pH 7.4). BSA (0.1%) was added as an insulin carrier. Cells were subsequently washed with glucose-free KRBH and then incubated for 30 minutes at 37° C. in KRBH containing different concentrations of glucose. The reaction was stopped by placing the plates on ice; supernatants were collected to determine insulin secretion and cells were used for intracellular insulin content following acid-ethanol extraction. Insulin was measured by ELISA (Linco) according to the manufacturer's instructions.
row,Structure (SMILES),Insulin secretion (Min6 cell) Range 1 to 5
1,"COc1cccc(C(O)CN2CCC(=O)N(C3CC3)Cc3cc(F)ccc32)c1 (stereo not shown) [Compound 58, 5-cyclopropyl-8-fluoro-1-(2-hydroxy-2-(3-methoxyphenyl)ethyl)-2,3,5,6-tetrahydrobenzo[b][1,5]diazocin-4(1H)-one]",2 (2: 110-120% of control)
2,"COc1ccc(C(O)CN2CCC(=O)N(C3CC3)Cc3cc(F)ccc32)cc1 (stereo not shown) [Compound 59, 5-cyclopropyl-8-fluoro-1-(2-hydroxy-2-(4-methoxyphenyl)ethyl)-2,3,5,6-tetrahydrobenzo[b][1,5]diazocin-4(1H)-one]",2 (2: 110-120% of control)
3,"O=C1CCN(CC(O)c2ccc3c(c2)OCCO3)c2ccc(F)cc2CN1C1CC1 (stereo not shown) [Compound 60, 5-cyclopropyl-1-(2-(2,3-dihydrobenzo[b][1,4]dioxin-6-yl)-2-hydroxyethyl)-8-fluoro-2,3,5,6-tetrahydrobenzo[b][1,5]diazocin-4(1H)-one]",2 (2: 110-120% of control)
4,"O=C1CCN(CC(O)c2ccccc2)c2ccc(F)cc2CN1C1CC1 (stereo not shown) [Compound 61, 5-cyclopropyl-8-fluoro-1-(2-hydroxy-2-phenylethyl)-2,3,5,6-tetrahydrobenzo[b][1,5]diazocin-4(1H)-one]",3 (3: 120-140% of control)
5,"O=C1CCNc2cnccc2CN1C1CC1 [Compound 62, 5-cyclopropyl-2,3,5,6-tetrahydropyrido[3,4-b][1,5]diazocin-4(1H)-one]",2 (2: 110-120% of control)
6,"C=CCOc1c(OC)ccc2c1CN(C1CCCC1)C(=O)CCN2CC(=O)O [Compound 63, 2-(7-(allyloxy)-5-cyclopentyl-8-methoxy-4-oxo-3,4,5,6-tetrahydrobenzo[b][1,5]diazocin-1(2H)-yl)acetic acid]",1 (1: 90-110% of control)
7,"O=C1CCN(CC(O)c2ccc(N3CCCC3)cc2)c2ccc(F)cc2CN1C1CC1 (stereo not shown) [Compound 64, 5-cyclopropyl-8-fluoro-1-(2-hydroxy-2-(4-(pyrrolidin-1-yl)phenyl)ethyl)-2,3,5,6-tetrahydrobenzo[b][1,5]diazocin-4(1H)-one]",5 (5: >170% of control)
8,"O=C1CCN(CC(O)COc2ccc(F)cc2)c2ccc(F)cc2CN1C1CC1 (stereo not shown) [Compound 65, 5-cyclopropyl-8-fluoro-1-(3-(4-fluorophenoxy)-2-hydroxypropyl)-2,3,5,6-tetrahydrobenzo[b][1,5]diazocin-4(1H)-one]",3 (3: 120-140% of control)
9,"O=C1CCN(C[C@H](O)COCc2ccccc2)c2ccc(F)cc2CN1C1CC1 [Compound 66, (S)-1-(3-(benzyloxy)-2-hydroxypropyl)-5-cyclopropyl-8-fluoro-2,3,5,6-tetrahydrobenzo[b][1,5]diazocin-4(1H)-one]",1 (1: 90-110% of control)
10,"COc1ccc2c(c1)CN(C1CC1)C(=O)CCN2C[C@H](O)COCc1ccccc1 [Compound 67, (S)-1-(3-(benzyloxy)-2-hydroxypropyl)-5-cyclopropyl-8-methoxy-2,3,5,6-tetrahydrobenzo[b][1,5]diazocin-4(1H)-one]",3 (3: 120-140% of control)
11,"COc1ccc2c(c1)CN(C1CC1)C(=O)CCN2C[C@@H](O)CO [Compound 68, (R)-5-cyclopropyl-1-(2,3-dihydroxypropyl)-8-methoxy-2,3,5,6-tetrahydrobenzo[b][1,5]diazocin-4(1H)-one]",3 (3: 120-140% of control)
12,"O=C(c1ccc(F)cc1)N1CCC(=O)N(C2CC2)Cc2cc(F)ccc21 [Compound 69, 5-cyclopropyl-8-fluoro-1-(4-fluorobenzoyl)-2,3,5,6-tetrahydrobenzo[b][1,5]diazocin-4(1H)-one]",1 (1: 90-110% of control)
13,"O=C(c1cccnc1)N1CCC(=O)N(C2CC2)Cc2cc(F)ccc21 [Compound 70, 5-cyclopropyl-8-fluoro-1-nicotinoyl-2,3,5,6-tetrahydrobenzo[b][1,5]diazocin-4(1H)-one]",1 (1: 90-110% of control)
